Experimental data reported in the supplement of paper PMC10307832.

Columns and labels:
Test in all cases: relative viability (nuclei count vs DMSO), 5 days (fraction); higher = more cells survive
BEN = tested on: BEN
In short: (§1)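 Lung cancer cell lines were seeded in 1536-well plates and dosed by pin tool the next day, with either a single drug or a fixed anchor-drug dose combined with five library-drug doses (not always all listed) spaced in √10 steps. Five days later, one step fixed the cells and stained their nuclei (final 0.05% Triton X-100, 1% formaldehyde, 1 ug/ml Hoechst), and nuclei were counted on 4× images. Relative viability is the nuclei count in treated wells divided by the count in vehicle wells, and each value is the median of duplicate plates.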

ChaGo-K-1 = tested on: ChaGo-K-1
In short: as §1

H3255 = tested on: H3255
In short: as §1

HCC-15 = tested on: HCC-15
In short: as §1

HCC-78 = tested on: HCC-78
In short: as §1

LC-2-ad = tested on: LC-2-ad
In short: as §1

LCLC-97TM1 = tested on: LCLC-97TM1
In short: as §1

LU99A = tested on: LU99A
In short: as §1

LXF-289 = tested on: LXF-289
In short: as §1

NCI-H1651 = tested on: NCI-H1651
In short: as §1

NCI-H1666 = tested on: NCI-H1666
In short: as §1

NCI-H2087 = tested on: NCI-H2087
In short: as §1

NCI-H322M = tested on: NCI-H322M
In short: as §1

NCI-H596 = tested on: NCI-H596
In short: as §1

NCI-H650 = tested on: NCI-H650
In short: as §1

NCI-H661 = tested on: NCI-H661
In short: as §1

NCI-H838 = tested on: NCI-H838
In short: as §1

PC-3 [JPC-3] = tested on: PC-3 [JPC-3]
In short: as §1

UMC-11 = tested on: UMC-11
In short: as §1

C[C@@H]1CN(CC(=O)Nc2ccc3c(c2)Cc2cccc(-c4cc(=O)cc(N5CCOCC5)o4)c2S3)C[C@H](C)O1 + CC(C)C[C@H](NC(=O)[C@H](Cc1ccccc1)NC(=O)c1cnccn1)B(O)O [Bortezomib] (partner 0.002 µM)
relative viability (BEN; first compound 0.04 µM): 0.624
relative viability (BEN; first compound 0.1265 µM): 0.71
relative viability (BEN; first compound 0.4 µM): 0.861
relative viability (BEN; first compound 4 µM): 0.788
relative viability (ChaGo-K-1; first compound 0.1265 µM): 1.02
relative viability (ChaGo-K-1; first compound 0.4 µM): 0.936
relative viability (ChaGo-K-1; first compound 4 µM): 0.87
relative viability (H3255; first compound 0.04 µM): 0.495
relative viability (H3255; first compound 0.1265 µM): 0.771
relative viability (H3255; first compound 0.4 µM): 0.534
relative viability (H3255; first compound 4 µM): 0.582
relative viability (HCC-15; first compound 0.04 µM): 1
relative viability (HCC-15; first compound 0.1265 µM): 0.948
relative viability (HCC-15; first compound 0.4 µM): 1.03
relative viability (HCC-15; first compound 4 µM): 0.836
relative viability (HCC-78; first compound 0.04 µM): 0.404
relative viability (HCC-78; first compound 0.1265 µM): 0.484
relative viability (HCC-78; first compound 0.4 µM): 0.431
relative viability (HCC-78; first compound 4 µM): 0.432
relative viability (LC-2-ad; first compound 0.04 µM): 1.09
relative viability (LC-2-ad; first compound 0.1265 µM): 0.981
relative viability (LC-2-ad; first compound 0.4 µM): 0.936
relative viability (LC-2-ad; first compound 4 µM): 0.847
relative viability (LCLC-97TM1; first compound 0.1265 µM): 0.615
relative viability (LCLC-97TM1; first compound 0.4 µM): 0.33
relative viability (LCLC-97TM1; first compound 4 µM): 0.391
relative viability (LU99A; first compound 0.04 µM): 1.11
relative viability (LU99A; first compound 0.1265 µM): 1.15
relative viability (LU99A; first compound 0.4 µM): 1.11
relative viability (LU99A; first compound 4 µM): 1.1
relative viability (LXF-289; first compound 0.04 µM): 0.996
relative viability (LXF-289; first compound 0.1265 µM): 0.977
relative viability (LXF-289; first compound 0.4 µM): 1.02
relative viability (LXF-289; first compound 4 µM): 0.999
relative viability (NCI-H1651; first compound 0.04 µM): 0.848
relative viability (NCI-H1651; first compound 0.1265 µM): 0.866
relative viability (NCI-H1651; first compound 0.4 µM): 0.922
relative viability (NCI-H1651; first compound 4 µM): 0.976
relative viability (NCI-H1666; first compound 0.04 µM): 0.872
relative viability (NCI-H1666; first compound 0.1265 µM): 0.993
relative viability (NCI-H1666; first compound 0.4 µM): 0.823
relative viability (NCI-H1666; first compound 4 µM): 0.643
relative viability (NCI-H2087; first compound 0.04 µM): 0.751
relative viability (NCI-H2087; first compound 0.1265 µM): 0.808
relative viability (NCI-H2087; first compound 0.4 µM): 0.948
relative viability (NCI-H2087; first compound 4 µM): 0.652
relative viability (NCI-H322M; first compound 0.04 µM): 1.09
relative viability (NCI-H322M; first compound 0.1265 µM): 1.14
relative viability (NCI-H322M; first compound 0.4 µM): 1.32
relative viability (NCI-H322M; first compound 4 µM): 1.12
relative viability (NCI-H596; first compound 0.04 µM): 0.937
relative viability (NCI-H596; first compound 0.1265 µM): 1.12
relative viability (NCI-H596; first compound 0.4 µM): 1.01
relative viability (NCI-H596; first compound 4 µM): 0.923
relative viability (NCI-H650; first compound 0.04 µM): 0.742
relative viability (NCI-H650; first compound 0.1265 µM): 0.801
relative viability (NCI-H650; first compound 0.4 µM): 0.761
relative viability (NCI-H650; first compound 4 µM): 0.552
relative viability (NCI-H661; first compound 0.1265 µM): 0.798
relative viability (NCI-H661; first compound 0.4 µM): 0.765
relative viability (NCI-H661; first compound 4 µM): 0.778
relative viability (NCI-H838; first compound 0.04 µM): 0.715
relative viability (NCI-H838; first compound 0.1265 µM): 0.689
relative viability (NCI-H838; first compound 0.4 µM): 0.865
relative viability (NCI-H838; first compound 4 µM): 0.643
relative viability (PC-3 [JPC-3]; first compound 0.04 µM): 0.861
relative viability (PC-3 [JPC-3]; first compound 0.1265 µM): 0.771
relative viability (PC-3 [JPC-3]; first compound 0.4 µM): 0.908
relative viability (PC-3 [JPC-3]; first compound 4 µM): 0.677
relative viability (UMC-11; first compound 0.04 µM): 0.778
relative viability (UMC-11; first compound 0.1265 µM): 0.693
relative viability (UMC-11; first compound 0.4 µM): 0.919
relative viability (UMC-11; first compound 4 µM): 0.543
